Patent US20060194837A1, “Tetrahydroisoquinoline compounds” (priority 2004, published 2006)

Assays:
human H3 receptor = molecular target: T1, human H3 receptor (Homo sapiens, UniProt Q9Y5N1); experiment: H3 receptor binding (N-[3H]-α-methylhistamine displacement); conditions: membranes of SK-N-MC cells expressing cloned human H3 receptor, 0.8 nM N-[3H]-α-methylhistamine, 60 min at 25° C.
T1 construct: expressed in transfected cells
Experimental: Briefly, cell pellets from SK-N-MC cells expressing the human H3 receptor were homogenized in 50 mM Tris-HCl/5 mM EDTA and re-centrifuged at 30,000 g for 30 min. Pellets were re-homogenized in 50 mM Tris/6 mM EDTA (pH 7.4). Membranes were incubated with 0.8 nM N-[^3H]-α-methylhistamine plus/minus test compounds for 60 min at 25° C. and harvested by rapid filtration over GF/C glass fiber filters (pretreated with 0.3% polyethylenimine) followed by four washes with ice-cold buffer. Nonspecific binding was defined in the presence of 10 μM histamine.

Rat SERT = molecular target: T2, Rat SERT (Rattus norvegicus, UniProt P31652); experiment: Rat brain SERT binding ([3H]-citalopram displacement); conditions: rat brain membranes without cerebellum, 0.6 nM [3H]-citalopram, 60 min at 25° C.; read-out: Rat SERT Ki
T2 construct: A rat brain without cerebellum (Zivic Laboratories, Inc.—Pittsburgh, Pa.) was homogenized; tissue Zivic Laboratories, Inc; host or cells: rat brain without cerebellum, membranes
T2 sequence (P31652 whole entry): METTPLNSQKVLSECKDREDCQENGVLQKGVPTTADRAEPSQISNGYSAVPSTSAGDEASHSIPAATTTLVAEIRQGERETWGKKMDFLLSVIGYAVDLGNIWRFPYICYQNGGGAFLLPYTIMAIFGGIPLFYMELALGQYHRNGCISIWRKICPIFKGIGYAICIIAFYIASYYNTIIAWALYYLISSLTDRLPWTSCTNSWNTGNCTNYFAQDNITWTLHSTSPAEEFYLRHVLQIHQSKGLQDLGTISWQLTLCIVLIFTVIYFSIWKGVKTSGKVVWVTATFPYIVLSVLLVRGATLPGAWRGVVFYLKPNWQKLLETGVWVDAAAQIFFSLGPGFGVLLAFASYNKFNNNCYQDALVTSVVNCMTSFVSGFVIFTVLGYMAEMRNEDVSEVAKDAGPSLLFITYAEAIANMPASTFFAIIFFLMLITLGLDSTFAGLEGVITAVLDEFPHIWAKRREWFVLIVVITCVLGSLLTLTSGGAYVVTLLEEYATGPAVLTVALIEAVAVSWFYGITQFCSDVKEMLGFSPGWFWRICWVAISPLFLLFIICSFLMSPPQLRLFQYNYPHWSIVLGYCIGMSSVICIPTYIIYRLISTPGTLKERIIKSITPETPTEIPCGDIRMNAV
Experimental: The supernatant was removed and re-centrifuged at 15,000 rpm for 30 min. […] Membranes were incubated with 0.6 nM [^3H]-Citalopram plus/minus test compounds for 60 min at 25° C. and harvested by rapid filtration over GF/C glass fiber filters (pretreated with 0.3% polyethylenimine) followed by four washes with ice-cold buffer.

T1 sequence (Q9Y5N1 whole entry): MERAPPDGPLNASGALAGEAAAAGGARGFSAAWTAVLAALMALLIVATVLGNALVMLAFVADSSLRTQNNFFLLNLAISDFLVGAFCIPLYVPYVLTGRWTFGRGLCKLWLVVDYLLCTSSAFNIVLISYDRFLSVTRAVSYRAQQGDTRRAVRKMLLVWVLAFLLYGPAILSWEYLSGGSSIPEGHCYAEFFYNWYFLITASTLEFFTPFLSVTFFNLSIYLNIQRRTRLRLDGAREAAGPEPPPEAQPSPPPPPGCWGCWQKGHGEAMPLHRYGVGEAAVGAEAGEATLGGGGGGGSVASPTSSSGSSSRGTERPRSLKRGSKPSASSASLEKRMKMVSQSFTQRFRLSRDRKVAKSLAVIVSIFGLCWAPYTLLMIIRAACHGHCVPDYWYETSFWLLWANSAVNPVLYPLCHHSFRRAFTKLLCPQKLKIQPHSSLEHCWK

Structure (SMILES)	Ki (human H3 receptor) [nM]	Ki (Rat SERT) [nM]
COc1ccc(C2CN(C)Cc3cc(OCCCN4CCC(C(F)(F)F)CC4)ccc32)cc1 (stereo not drawn) [Example 38, 4-(4-Methoxy-phenyl)-2-methyl-7-[3-(4-trifluoromethyl-piperidin-1-yl)-propoxy]-1,2,3,4-tetrahydro-isoquinoline]	38	29
COc1ccc(C2CN(C)Cc3cc(OCCCN4CCC5(CC4)OCCO5)ccc32)cc1 (stereo not drawn) [Example 41, 7-[3-(1,4-Dioxa-8-aza-spiro[4.5]dec-8-yl)-propoxy]-4-(4-methoxy-phenyl)-2-methyl-1,2,3,4-tetrahydro-isoquinoline]	14	6
COc1ccc(C2CN(C)Cc3cc(OCCCN4CCN(c5ccc(C(F)(F)F)cc5)CC4)ccc32)cc1 (stereo not drawn) [Example 205, 4-(4-Methoxy-phenyl)-2-methyl-7-{3-[4-(4-trifluoromethyl-phenyl)-piperazin-1-yl]-propoxy}-1,2,3,4-tetrahydro-isoquinoline]	2000	44
CSc1ccc(C2CN(C)Cc3cc(OCC4CN(CCF)C4)ccc32)cc1 (stereo not drawn) [Example 239, 7-[1-(2-Fluoro-ethyl)-azetidin-3-ylmethoxy]-2-methyl-4-(4-methylsulfanyl-phenyl)-1,2,3,4-tetrahydro-isoquinoline]	30	2
CN1Cc2cc(OCCCN3CCC(F)CC3)ccc2C(c2ccccc2F)C1 (stereo not drawn) [Example 125, 4-(2-Fluoro-phenyl)-7-[3-(4-fluoro-piperidin-1-yl)-propoxy]-2-methyl-1,2,3,4-tetrahydro-isoquinoline]	2	45
CCCN1CCC(Oc2ccc3c(c2)CN(C)CC3c2cccc(OC)c2)CC1 (stereo not drawn) [Example 102, 4-(3-Methoxy-phenyl)-2-methyl-7-(1-propyl-piperidin-4-yloxy)-1,2,3,4-tetrahydro-isoquinoline]	2	13
COc1ccc(C2CN(C)Cc3cc(OCCC4CCCN4C)ccc32)cc1 (single isomer, unassigned) [Example 240A, 4-(4-Methoxy-phenyl)-2-methyl-7-[2-(1-methyl-pyrrolidin-2-yl)-ethoxy]-1,2,3,4-tetrahydro-isoquinoline]	3	2
COc1ccc(C2CN(C)Cc3cc(OCCCN4CCN(c5ccc(C#N)cc5)CC4)ccc32)cc1 (stereo not drawn) [Example 208, 4-(4-{3-[4-(4-Methoxy-phenyl)-2-methyl-1,2,3,4-tetrahydro-isoquinolin-7-yloxy]-propyl}-piperazin-1-yl)-benzonitrile]	137	4
COc1ccc(C2CN(C)Cc3cc(OCC4CCNCC4)ccc32)c(F)c1 (stereo not drawn) [Example 82, 4-(2-Fluoro-4-methoxy-phenyl)-2-methyl-7-(piperidin-4-ylmethoxy)-1,2,3,4-tetrahydro-isoquinoline]	64	6
CSc1ccc(C2CN(C)Cc3c2ccc(OCCCN2CCOCC2)c3C)cc1 (stereo not drawn) [Example 172, 2,8-Dimethyl-4-(4-methylsulfanyl-phenyl)-7-(3-morpholin-4-yl-propoxy)-1,2,3,4-tetrahydro-isoquinoline]	89	14
COc1ccc(C2CN(C)Cc3cc(OCCCN4CCN(C)CC4)ccc32)cc1 (stereo not drawn) [Example 197, 4-(4-Methoxy-phenyl)-2-methyl-7-[3-(4-methyl-piperazin-1-yl)-propoxy]-1,2,3,4-tetrahydro-isoquinoline]	15	5
CN1Cc2cc(OCCCN3CCC(F)CC3)ccc2C(c2cccc(OC(F)(F)F)c2)C1 (stereo not drawn) [Example 128, 7-[3-(4-Fluoro-piperidin-1-yl)-propoxy]-2-methyl-4-(3-trifluoromethoxy-phenyl)-1,2,3,4-tetrahydro-isoquinoline]	12	40
COc1ccc(C2CN(C)Cc3cc(OCC4CCN(C(C)C)CC4)ccc32)cc1F (stereo not drawn) [Example 89, 4-(3-Fluoro-4-methoxy-phenyl)-7-(1-isopropyl-piperidin-4-ylmethoxy)-2-methyl-1,2,3,4-tetrahydro-isoquinoline]	2	5
COc1ccc(C2CN(C)Cc3cc(OCCCN(C4CC4)C4CCN(C)CC4)ccc32)cc1 (stereo not drawn) [Example 224, Cyclopropyl-{3-[4-(4-methoxy-phenyl)-2-methyl-1,2,3,4-tetrahydro-isoquinolin-7-yloxy]-propyl}-(1-methyl-piperidin-4-yl)-amine]	61	32
COc1ccc(C2CN(C)Cc3cc(OCCCN4CCN(Cc5cccs5)CC4)ccc32)cc1 (stereo not drawn) [Example 201, 4-(4-Methoxy-phenyl)-2-methyl-7-[3-(4-thiophen-2-ylmethyl-piperazin-1-yl)-propoxy]-1,2,3,4-tetrahydro-isoquinoline]	134	4
COc1ccc(C2CN(C)Cc3cc(OCC4CCN(C(C)C)CC4)ccc32)cc1Cl (stereo not drawn) [Example 88, 4-(3-Chloro-4-methoxy-phenyl)-7-(1-isopropyl-piperidin-4-ylmethoxy)-2-methyl-1,2,3,4-tetrahydro-isoquinoline]	3	15
COc1ccc(C2CN(C)Cc3cc(OCCCN4CCC[C@H]4C(F)(F)F)ccc32)cc1 (stereo partly drawn) [Example 28, 4-(4-Methoxy-phenyl)-2-methyl-7-[3-((2S)-trifluoromethyl-pyrrolidin-1-yl)-propoxy]-1,2,3,4-tetrahydro-isoquinoline]	140	12
COc1ccc(C2CN(C)Cc3cc(OC4CCN(C(C)C)CC4)ccc32)cc1F (stereo not drawn) [Example 120, 4-(3-Fluoro-4-methoxy-phenyl)-7-(1-isopropyl-piperidin-4-yloxy)-2-methyl-1,2,3,4-tetrahydro-isoquinoline]	1	10
COc1ccc(C2CN(C)Cc3cc(OCC4CCN(C5CC5)CC4)ccc32)cc1 (stereo not drawn) [Example 249, 7-(1-Cyclopropyl-piperidin-4-ylmethoxy)-4-(4-methoxy-phenyl)-2-methyl-1,2,3,4-tetrahydro-isoquinoline]	4	6
COc1ccc(C2CN(C)Cc3cc(OCCCN4Cc5ccccc5C4)ccc32)cc1 (stereo not drawn) [Example 16, 7-[3-(1,3-Dihydro-isoindol-2-yl)-propoxy]-4-(4-methoxy-phenyl)-2-methyl-1,2,3,4-tetrahydro-isoquinoline]	25	6
COc1ccc(C2CN(C)Cc3cc(OCC(F)CN4CCC(F)CC4)ccc32)cc1 (stereo not drawn) [Example 43, 7-[2-Fluoro-3-(4-fluoro-piperidin-1-yl)-propoxy]-4-(4-methoxy-phenyl)-2-methyl-1,2,3,4-tetrahydro-isoquinoline]	18	3
COc1ccc(C2CN(C)Cc3cc(OCCCN4CCN(C5CC5)CC4)ccc32)cc1 (stereo not drawn) [Example 212, 7-[3-(4-Cyclopropyl-piperazin-1-yl)-propoxy]-4-(4-methoxy-phenyl)-2-methyl-1,2,3,4-tetrahydro-isoquinoline]	43	9
COc1ccc(C2CN(C)Cc3c2ccc(OCCCN2CCOCC2)c3C)cc1 (stereo not drawn) [Example 269, 4-(4-Methoxy-phenyl)-2,8-dimethyl-7-(3-morpholin-4-yl-propoxy)-1,2,3,4-tetrahydro-isoquinoline]	44	23
CN1Cc2cc(OCCCN3CCC(F)CC3)ccc2C(c2ccc(Sc3ccccc3)nc2)C1 (stereo not drawn) [Example 191, 7-[3-(4-Fluoro-piperidin-1-yl)-propoxy]-2-methyl-4-(6-phenylsulfanyl-pyridin-3-yl)-1,2,3,4-tetrahydro-isoquinoline]	26	69
CCN1CCC(Oc2ccc3c(c2)CN(C)CC3c2cccc(OC)c2)CC1 (stereo not drawn) [Example 100, 7-(1-Ethyl-piperidin-4-yloxy)-4-(3-methoxy-phenyl)-2-methyl-1,2,3,4-tetrahydro-isoquinoline]	2	10
CN1Cc2cc(OCCCN3CCC(F)CC3)ccc2C(c2ccc(SC(F)(F)F)cc2)C1 (stereo not drawn) [Example 217, 7-[3-(4-Fluoro-piperidin-1-yl)-propoxy]-2-methyl-4-(4-trifluoromethylsulfanyl-phenyl)-1,2,3,4-tetrahydro-isoquinoline]	42	58
COc1ccc(C2CN(C)Cc3cc(OC[C@@H]4CN(C(C)C)CCO4)ccc32)cc1 (mixture of isomers) [Example 255, 7-(4-Isopropyl-morpholin-2S-ylmethoxy)-4-(4-methoxy-phenyl)-2-methyl-1,2,3,4-tetrahydro-isoquinoline]	2	16
COc1ccc(C2CN(C)Cc3cc(OC[C@@H]4CNCCO4)ccc32)cc1 (stereo partly drawn) [Example 252, 4-(4-Methoxy-phenyl)-2-methyl-7-(morpholin-2S-ylmethoxy)-1,2,3,4-tetrahydro-isoquinoline]	233	2
CSc1ccc(C2CN(C)Cc3cc(OCCCN4CCOCC4)c(C)cc32)cc1 (stereo not drawn) [Example 173, 2,6-Dimethyl-4-(4-methylsulfanyl-phenyl)-7-(3-morpholin-4-yl-propoxy)-1,2,3,4-tetrahydro-isoquinoline]	15	18
COc1cccc(C2CN(C)Cc3cc(OC4CCNCC4)ccc32)c1 (stereo not drawn) [Example 96, 4-(3-Methoxy-phenyl)-2-methyl-7-(piperidin-4-yloxy)-1,2,3,4-tetrahydro-isoquinoline]	182	14
